# Experimental data as given in US20140120060A1, “TREATMENT OF RHEUMATOID ARTHRITIS AND ASTHMA USING PI3 KINASE INHIBITORS” (INFINITY PHARMACEUTICALS, INC., priority 2012, published 2014).
# Several values for one entry are separate records, joined by “and”; a condition that tells them apart may be missing. Equal entries are not always repeated. Entries after “also recorded” stand apart in the source; their conditions may differ. Marks after values point to notes of the source that are not given here.
# Key:
# [1] = system: hemodynamic and electrocardiographic parameters; assay: Cardiovascular study in instrumented cynomolgus monkey; type: in vivo
# Text: Four non-naive, male monkeys implanted with radiotelemetry transmitters were utilized during the conduct of this study.
# [2] = system: PBMCs; assay: R848 induced cytokine production in PBMCs; type: cell-based, human
# Experimental: (§1) These experiments were conducted using PBMCs.
# [3] = system: Murine B-cell; assay: Murine B-cell proliferation; type: cell-based; details: Mus musculus
# [4] = target: hERG channel current (Homo sapiens, UniProt Q12809); assay: In vitro hERG assay; type: cell-based
# Sequence of hERG channel current (Q12809 whole entry): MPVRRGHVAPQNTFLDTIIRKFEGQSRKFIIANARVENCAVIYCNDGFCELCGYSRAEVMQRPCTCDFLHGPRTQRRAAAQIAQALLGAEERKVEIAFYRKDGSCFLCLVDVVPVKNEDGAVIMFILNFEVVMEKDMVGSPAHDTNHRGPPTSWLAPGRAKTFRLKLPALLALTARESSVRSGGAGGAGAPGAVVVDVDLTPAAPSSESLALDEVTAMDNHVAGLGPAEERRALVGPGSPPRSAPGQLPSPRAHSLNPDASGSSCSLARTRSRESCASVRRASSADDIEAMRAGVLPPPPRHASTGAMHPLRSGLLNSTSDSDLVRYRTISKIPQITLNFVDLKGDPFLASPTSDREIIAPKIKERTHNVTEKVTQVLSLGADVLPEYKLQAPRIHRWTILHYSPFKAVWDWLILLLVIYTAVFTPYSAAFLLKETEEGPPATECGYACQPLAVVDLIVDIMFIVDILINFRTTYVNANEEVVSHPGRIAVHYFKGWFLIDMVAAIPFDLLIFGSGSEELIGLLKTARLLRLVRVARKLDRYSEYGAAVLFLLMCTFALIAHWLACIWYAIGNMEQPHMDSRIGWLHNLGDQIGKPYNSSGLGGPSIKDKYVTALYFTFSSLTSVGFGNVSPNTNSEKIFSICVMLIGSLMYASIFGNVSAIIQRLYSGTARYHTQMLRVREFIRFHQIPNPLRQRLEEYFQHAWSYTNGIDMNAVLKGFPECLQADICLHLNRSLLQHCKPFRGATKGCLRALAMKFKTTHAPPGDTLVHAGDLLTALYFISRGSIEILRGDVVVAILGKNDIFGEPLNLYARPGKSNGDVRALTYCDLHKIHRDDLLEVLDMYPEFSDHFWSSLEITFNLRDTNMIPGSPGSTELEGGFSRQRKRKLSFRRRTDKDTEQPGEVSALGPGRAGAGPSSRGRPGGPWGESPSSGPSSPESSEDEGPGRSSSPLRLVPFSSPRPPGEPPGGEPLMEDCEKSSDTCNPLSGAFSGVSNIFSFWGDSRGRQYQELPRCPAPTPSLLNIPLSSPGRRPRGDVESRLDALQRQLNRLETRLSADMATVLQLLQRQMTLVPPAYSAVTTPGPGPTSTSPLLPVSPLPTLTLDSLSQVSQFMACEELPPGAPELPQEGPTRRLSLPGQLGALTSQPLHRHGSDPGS
# [5] = system: PBMCs; assay: LPS induced cytokine production in PBMCs; type: cell-based, human
# Experimental: as §1
# [6] = system: ovalbumin-induced lung inflammation; assay: Ovalbumin-induced murine model of asthma
# [7] = In vivo rat micronucleus assay
# [8] = system: TLR9; assay: CPG-A induced cytokine production in PBMCs; type: cell-based, human
# Experimental: Human PBMCs were stimulated with CPG-A. CPG-A selectively activates PDCs, inducing IFN-α production via TLR9. IFN-α is a PDC cell selective readout. Primary human PBMCs from two normal human donors were used as a source of PDC cells. 200 K cells per well were used. […] Then the cells were treated with the specified concentration of CPG-A for 16 hours. RPMI-5% serum was employed.
# as §1
# [9] = system: DTH ear swelling; assay: Murine model of delayed type hypersensitivity (DNFB); type: in vivo
# Experimental: The animals were subsequently challenged with DNFB on the pinna of the ear on day 5 to initiate an inflammatory reaction that was measured 24 hours later.
# [10] = Pharmacokinetics in Beagle dogs; type: in vivo, dog; details: PO 5 mg/kg
# [11] = target: T1, human P-glycoprotein (Homo sapiens, UniProt P08183); assay: Interaction with human P-glycoprotein in Caco-2 cell monolayers; type: in vitro ADME
# T1 construct: endogenous in cells; host or cells: Caco-2 cell monolayers
# T1 sequence (P08183 whole entry): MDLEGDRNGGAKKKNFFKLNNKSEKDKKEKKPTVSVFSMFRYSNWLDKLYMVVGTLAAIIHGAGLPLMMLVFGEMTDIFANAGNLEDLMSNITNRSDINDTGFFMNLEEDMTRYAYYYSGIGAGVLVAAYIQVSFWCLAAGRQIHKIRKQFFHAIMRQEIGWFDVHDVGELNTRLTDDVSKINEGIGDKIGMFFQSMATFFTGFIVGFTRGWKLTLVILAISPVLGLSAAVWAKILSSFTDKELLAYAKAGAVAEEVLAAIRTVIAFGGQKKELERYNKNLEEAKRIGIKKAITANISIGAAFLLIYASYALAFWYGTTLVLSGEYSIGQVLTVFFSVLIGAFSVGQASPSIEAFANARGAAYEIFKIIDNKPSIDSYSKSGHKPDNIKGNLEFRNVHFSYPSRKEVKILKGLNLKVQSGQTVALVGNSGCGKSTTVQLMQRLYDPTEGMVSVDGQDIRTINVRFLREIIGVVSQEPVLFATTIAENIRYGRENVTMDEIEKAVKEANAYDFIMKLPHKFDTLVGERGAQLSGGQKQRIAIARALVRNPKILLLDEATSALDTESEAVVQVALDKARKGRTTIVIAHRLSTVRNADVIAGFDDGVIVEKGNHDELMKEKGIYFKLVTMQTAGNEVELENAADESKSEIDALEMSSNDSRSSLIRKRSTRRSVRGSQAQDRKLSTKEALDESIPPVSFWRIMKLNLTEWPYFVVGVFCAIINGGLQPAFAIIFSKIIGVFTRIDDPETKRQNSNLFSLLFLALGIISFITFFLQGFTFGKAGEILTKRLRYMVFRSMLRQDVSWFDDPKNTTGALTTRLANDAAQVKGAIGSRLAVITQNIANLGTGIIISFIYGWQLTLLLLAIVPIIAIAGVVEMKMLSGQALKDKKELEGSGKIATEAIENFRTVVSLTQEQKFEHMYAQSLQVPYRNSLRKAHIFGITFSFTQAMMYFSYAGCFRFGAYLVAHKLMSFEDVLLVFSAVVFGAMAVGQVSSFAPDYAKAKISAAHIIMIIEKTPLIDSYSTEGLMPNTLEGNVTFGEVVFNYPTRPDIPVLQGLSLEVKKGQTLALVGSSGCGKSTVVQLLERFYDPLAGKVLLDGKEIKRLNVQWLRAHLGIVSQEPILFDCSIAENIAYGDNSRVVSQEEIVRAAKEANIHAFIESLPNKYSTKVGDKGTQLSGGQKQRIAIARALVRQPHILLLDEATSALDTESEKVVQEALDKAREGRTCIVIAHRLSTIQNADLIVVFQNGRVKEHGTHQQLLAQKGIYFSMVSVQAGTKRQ
# [12] = Pharmacokinetics in BALB/c mice; type: in vivo, mouse
# [13] = target: PI3K δ (Homo sapiens, UniProt O00329); assay: In vitro PI3K δ inhibition (lipid kinase assay, TLC or HTRF); details: selectivity
# Sequence of PI3K δ (O00329 whole entry): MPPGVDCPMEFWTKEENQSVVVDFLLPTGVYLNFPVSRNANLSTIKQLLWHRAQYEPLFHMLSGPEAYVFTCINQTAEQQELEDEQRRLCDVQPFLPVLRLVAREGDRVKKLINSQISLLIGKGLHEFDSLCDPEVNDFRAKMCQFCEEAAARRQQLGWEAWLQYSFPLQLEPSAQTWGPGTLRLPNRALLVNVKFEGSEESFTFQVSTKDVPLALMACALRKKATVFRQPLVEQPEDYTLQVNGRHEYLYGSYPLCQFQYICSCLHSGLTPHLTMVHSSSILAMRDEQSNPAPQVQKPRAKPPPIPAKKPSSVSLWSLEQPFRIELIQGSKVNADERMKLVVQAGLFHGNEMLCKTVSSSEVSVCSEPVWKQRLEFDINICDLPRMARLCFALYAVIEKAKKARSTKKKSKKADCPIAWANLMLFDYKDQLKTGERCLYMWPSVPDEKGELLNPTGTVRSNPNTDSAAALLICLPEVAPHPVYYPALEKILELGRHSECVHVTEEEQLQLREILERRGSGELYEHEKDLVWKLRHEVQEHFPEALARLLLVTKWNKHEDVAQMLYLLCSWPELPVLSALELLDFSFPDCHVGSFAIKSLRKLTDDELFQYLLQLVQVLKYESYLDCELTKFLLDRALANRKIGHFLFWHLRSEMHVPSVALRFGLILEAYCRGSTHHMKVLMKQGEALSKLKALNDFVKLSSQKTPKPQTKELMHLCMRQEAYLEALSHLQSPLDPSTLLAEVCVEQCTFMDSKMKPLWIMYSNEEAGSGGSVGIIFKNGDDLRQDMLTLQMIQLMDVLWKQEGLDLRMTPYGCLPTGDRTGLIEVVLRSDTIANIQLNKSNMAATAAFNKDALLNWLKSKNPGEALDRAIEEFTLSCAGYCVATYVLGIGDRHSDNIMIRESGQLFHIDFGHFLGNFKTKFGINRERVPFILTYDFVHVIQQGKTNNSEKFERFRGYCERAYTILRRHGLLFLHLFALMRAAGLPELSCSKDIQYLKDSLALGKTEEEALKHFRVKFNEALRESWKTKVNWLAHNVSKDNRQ
# Sequence of PI3K δ (P27986 whole entry partner): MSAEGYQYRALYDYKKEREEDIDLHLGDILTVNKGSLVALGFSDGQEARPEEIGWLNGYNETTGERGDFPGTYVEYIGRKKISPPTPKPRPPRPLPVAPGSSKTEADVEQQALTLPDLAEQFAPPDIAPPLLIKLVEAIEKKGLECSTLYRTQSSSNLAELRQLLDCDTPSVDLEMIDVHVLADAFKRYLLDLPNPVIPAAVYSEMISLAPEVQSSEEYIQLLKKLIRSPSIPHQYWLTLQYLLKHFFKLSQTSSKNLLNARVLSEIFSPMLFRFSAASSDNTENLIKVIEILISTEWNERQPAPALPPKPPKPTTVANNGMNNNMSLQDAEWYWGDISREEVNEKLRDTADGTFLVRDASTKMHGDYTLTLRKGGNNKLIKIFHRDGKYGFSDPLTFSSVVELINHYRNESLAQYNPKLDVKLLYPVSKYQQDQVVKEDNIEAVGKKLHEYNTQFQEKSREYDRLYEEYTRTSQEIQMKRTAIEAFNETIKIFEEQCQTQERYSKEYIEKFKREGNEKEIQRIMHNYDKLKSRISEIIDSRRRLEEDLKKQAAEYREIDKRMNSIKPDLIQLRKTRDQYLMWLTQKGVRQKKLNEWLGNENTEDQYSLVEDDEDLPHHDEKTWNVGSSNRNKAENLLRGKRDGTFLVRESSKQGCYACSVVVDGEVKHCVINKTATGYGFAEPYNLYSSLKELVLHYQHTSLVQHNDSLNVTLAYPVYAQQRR
# [14] = system: developing or established type II collagen arthritis; assay: Rat collagen-induced arthritis model, alone or in combination with methotrexate or etanercept; type: in vivo; details: 2.5, 5 or 50 mg/kg daily oral, alone or in combination with MTX or etanercept
# Experimental: Treatment was administered either alone or in combination with the reference compounds MTX, or etanercept. All rats were administered MTX, vehicle 2 (1% CMC in water), or vehicle 1 on days 0-20 in order to keep dose manipulations consistent for all groups. Animals were terminated on day 21. Efficacy evaluation was based on daily ankle caliper measurements, ankle diameter expressed as area under the curve (AUC), and terminal hind paw weights.
# [15] = In vitro genetic toxicity studies
# [16] = system: Caco-2 cell monolayers; assay: Membrane permeability in Caco-2 cell monolayers; type: in vitro ADME, human
# [17] = system: central nervous system; assay: Neurofunctional study (FOB, motor activity) in Sprague-Dawley rat; details: male rats
# [18] = system: Human T-cell; assay: Human T-cell proliferation; type: cell-based
# [19] = system: established type II collagen-induced arthritis; assay: Rat collagen-induced arthritis model (established); type: in vivo
# Experimental: Etanercept (10 mg/kg) was administered subcutaneously on days 10 and 13 as a positive control. The study was terminated on day 17.
# [20] = system: LPS-induced pulmonary inflammation; assay: Murine model of LPS-induced lung inflammation; type: in vivo, mice; details: 3 mg/kg PO 60 minutes prior to LPS; 6 h after challenge
# Experimental: Multiple parameters of pulmonary inflammation were determined 6 h after LPS challenge. Instillation of LPS induced significant influx of leukocytes, mostly neutrophils, into the airways, as assessed by counting the number of cells in the bronchoalveolar lavage (BAL) fluid.
# [21] = system: respiratory system; assay: Respiratory study in Sprague-Dawley rat; details: male rats, single oral dose up to 350 mg/kg
# [22] = Clinical study in healthy adult subjects: safety
# [23] = Plasma protein binding, monkey plasma; type: in vitro ADME; details: 100 μM (41700 ng/mL)
# Text: […]. […] […].
structure (smiles),measurement,setting,value
C[C@H](Nc1ncnc2[nH]cnc12)c1cc2cccc(Cl)c2c(=O)n1-c1ccccc1 [Compound 292],hemodynamic or electrocardiographic parameters,"[1]; male cynomolgus monkeys, single oral dose of 5, 30 and 150 mg/kg",No Compound 292-related effects
same,waveform abnormalities or arrhythmias,[1]; up to 150 mg/kg,no waveform abnormalities or arrhythmias
same,R848 induced IFN-α,[2],did not detectably affect
same,R848 induced IL-1,[2],slightly inhibited
same,R848 induced IL-6,[2],did not detectably affect
same,R848 induced IL-8,[2],did not detectably affect
same,R848 induced TNF-α,[2],did not detectably affect
same,EC50,[3],0.5 nM
same,Hill coefficient (hERG),[4],1.3
same,IC50 on hERG potassium current,[4],20.8 µg/mL
same,LPS induced IL-1 production,[5],enhanced
same,LPS induced IL-6 production,[5],enhanced
same,LPS induced IL-8 production,[5],did not detectably affect
same,LPS induced TNF-α production,[5],enhanced
same,leukocyte migration into the bronchoalveolar space,[6]; FIG. 15,inhibited
same,eosinophil influx into the airway space (BAL fluid),"[6]; all doses tested, 0.03 to 10 mg/kg PO",significantly blocked
same,lymphocyte and monocyte accumulation in BAL fluid,[6]; ovalbumin induced,reduced
same,adverse effect in micronucleus assay,[7],no direct adverse effect
same,CPG-A induced IL-6 production,[8]; PBMCs,Inhibited
same,CPG-A induced IL-8 production,[8]; PBMCs,Inhibited
same,CPG-A induced TNF-α production,[8]; PBMCs,Inhibited
same,CPG-A induced IFN-α production,[8]; human PBMCs,potently inhibited; also recorded: blocked
same,ear swelling,"[9]; 0.3, 1, 3 and 10 mg/kg PO",Dose dependent inhibition
same,inhibition of ear swelling vs vehicle control,"[9]; highest dose group (10 mg/kg PO, 30 minutes prior to DNFB challenge)",approximately 50%
same,Foral,[10]; calculated using 0.5 mg/kg IV dose as reference and AUC0-last,"97^g,i %"
same,Foral,[10]; calculated using 1 mg/kg IV dose as reference and AUC0-last,"40% and 40^h,i %"
same,P-gp substrate status,[11],is a P-gp substrate
same,inhibition of active transport of other P-gp substrates,[11],has the potential to inhibit the active transport of other P-gp substrates
same,Foral,"[12]; BALB/c mice, PO 10 mg/kg suspension, calculated using AUC0-last",7% and 7^i %
same,half-life,"[12]; BALB/c, mouse, in vivo, iv, 10 mg/kg",< 2 h
same,"lower dose inhibiting PI3K-δ compared to PI3K-γ, PI3K-β or PI3K-α",[13],at least 10 fold
same,effects on parameters of developing and established type II collagen arthritis,[14],beneficial effects
same,tolerability,[14],well tolerated
same,genetic toxicity,[15],no genetic toxicity
same,cell membrane permeability,[16],moderate
same,locomotor activity,[17]; 2 h after a 350 mg/kg dose,Significant decreases
same,effects on the central nervous system,[17]; dose levels ≦50 mg/kg,No effects
same,qualitative or quantitative FOB parameters,"[17]; single oral dose up to 350 mg/kg, up to 24 h post-dose",no changes
same,EC50,[18],9.5 nM
same,mean ankle diameter at the end of the treatment period vs vehicle,"[19]; PO QD days 10-16, all doses 0.5-10 mg/kg, not at 0.1 mg/kg",significantly decreased
same,serum IgE levels vs vehicle controls,[19]; rat CIA model,Significant increases
same,summed ankle histological scores,[19]; rat CIA model,prevented inflammation and protected joint bone and cartilage
same,LPS-induced total leukocyte and neutrophil influx in BAL fluid,[20],inhibited
same,"respiratory parameters (respiratory rate, tidal volume, minute volume)",[21],no Compound 292-related effects
same,deaths and serious adverse events (SAEs),[22]; all doses evaluated,no deaths and no serious adverse events
same,safety laboratory or electrocardiogram (ECG) abnormalities,[22]; any portion of the study,No clinically significant safety laboratory or electrocardiogram (ECG) abnormalities
same,QTcF at any assessment,[22]; serial ECGs,≤ 500 ms
same,largest change from baseline in QTcF,[22]; serial ECGs,37 ms
same,tolerability,[22]; single doses up to 30 mg and up to 10 mg total daily dose for 14 days,well tolerated
same,protein bound in monkey plasma,[23],76.8%
